Measurements from ChEMBL document CHEMBL3286135, “Antiviral C-25 epimers of 26-acetoxy steroids from the South China Sea gorgonian Echinogorgia rebekka” (J Nat Prod, 2014).
The source made the active and inactive calls. No cut-off for these calls is given here.

Key:
[1] = Cytotoxicity against mock-infected human Hep2 cells by XTT assay; assay type: cell-based, HEp-2; settings: read-out: TC50 (the source's name)
[2] = test system: Tetragenococcus halophilus; experiment: Antibacterial activity against Tetragenococcus halophilus by broth dilution assay; assay type: functional
Staphylococcus aureus = experiment: Antibacterial activity against Staphylococcus aureus by broth dilution assay; assay type: functional, organism-based
Vibrio parahaemolyticus = experiment: Antibacterial activity against Vibrio parahaemolyticus by broth dilution assay; assay type: functional, organism-based
Nocardia brasiliensis = experiment: Antibacterial activity against Nocardia brasiliensis by broth dilution assay; assay type: functional, organism-based
[3] = test system: Staphylococcus epidermidis; experiment: Antibacterial activity against Staphylococcus epidermidis by broth dilution assay; assay type: functional, organism-based
[4] = test system: Respiratory syncytial virus; experiment: Antiviral activity against Respiratory syncytial virus infected in human Hep2 cells assessed as virus-induced cytopathicity by XTT assay; assay type: functional, organism-based; settings: HEp-2
Bacillus cereus = experiment: Antibacterial activity against Bacillus cereus by broth dilution assay; assay type: functional, organism-based
HeLa = experiment: Cytotoxicity against human HeLa cells by SRB assay; assay type: functional, cell-based
Pseudomonas putida = experiment: Antibacterial activity against Pseudomonas putida by broth dilution assay; assay type: functional, organism-based
A549 = experiment: Cytotoxicity against human A549 cells by SRB assay; assay type: functional, cell-based
HL-60 = experiment: Cytotoxicity against human HL60 cells by MTT assay; assay type: functional, cell-based
Escherichia coli = experiment: Antibacterial activity against Escherichia coli by broth dilution assay; assay type: functional, organism-based
[5] = Therapeutic ratio of TC50 for mock-infected human Hep2 cells to IC50 for Respiratory syncytial virus infected in human Hep2 cells; assay type: ADME, cell-based, HEp-2; settings: read-out: TI
K562 = experiment: Cytotoxicity against human K562 cells by MTT assay; assay type: functional, cell-based

| Structure (SMILES) | CC50 [1] [µM] | Activity [2] | Activity (Staphylococcus aureus) | Activity (Vibrio parahaemolyticus) | Activity (Nocardia brasiliensis) | Activity [3] | IC50 [4] [µM] | Activity (Bacillus cereus) | Activity (HeLa) | Activity (Pseudomonas putida) | Activity (A549) | Activity (HL-60) | Activity (Escherichia coli) | selectivity ratio [5] | Activity (K562) | IC50 (K562) [µM] | IC50 (HL-60) [µM] |
| --- | --- | --- | --- | --- | --- | --- | --- | --- | --- | --- | --- | --- | --- | --- | --- | --- | --- |
| CC(=O)OC[C@H](C)[C@H](C)/C=C/[C@@H](C)[C@H]1CC[C@H]2[C@@H]3CC(=O)[C@@]4(O)C[C@@H](O)CC[C@]4(C)[C@H]3CC[C@]12C | 24.4 | inactive | inactive | inactive | inactive | inactive | 0.19 | inactive | inactive | inactive | inactive | inactive | inactive | 128 | inactive | – | – |
| CC(=O)OCC(C)/C=C/[C@@H](C)[C@H]1CC[C@H]2[C@@H]3CC(=O)[C@@]4(O)C[C@@H](O)CC[C@]4(C)[C@H]3CC[C@]12C (stereo not given in full) | 12.9 | inactive | inactive | inactive | inactive | inactive | 3.23 | inactive | – | inactive | – | – | inactive | 4 | – | 4.19 | – |
| CC(=O)OC[C@@H](C)[C@H](C)/C=C/[C@@H](C)[C@H]1CC[C@H]2[C@@H]3CC(=O)[C@@]4(O)C[C@@H](O)CC[C@]4(C)[C@H]3CC[C@]12C | 0.38 | inactive | inactive | inactive | inactive | inactive | 0.19 | inactive | – | inactive | – | – | inactive | 2 | – | 6.36 | 8.99 |
| NC(=O)c1ncn([C@@H]2O[C@H](CO)[C@@H](O)[C@H]2O)n1 [RIBAVIRIN] | > 3000 | – | – | – | – | – | 20.4 | – | – | – | – | – | – | > 147 | – | – | – |
| CC(=O)OC[C@@H](C)C/C=C/[C@@H](C)[C@H]1CC[C@H]2[C@@H]3CC(=O)[C@@]4(O)C[C@@H](O)CC[C@]4(C)[C@H]3CC[C@]12C | 12.6 | inactive | inactive | inactive | inactive | inactive | 0.78 | inactive | – | inactive | – | – | inactive | 16 | – | 0.85 | – |
